Numbers after ± are expanded uncertainties.
Assay: xn = mol fraction of the nth substance listed
Details: 101 kPa, Liquid; for viscosity: Falling or rolling sphere viscometry; for mass density: Vibrating tube method

CCCO [propan-1-ol] + CCO
Details | mass density, 293.15 K [kg/m3] | mass density, 298.15 K [kg/m3] | mass density, 303.15 K [kg/m3] | mass density, 308.15 K [kg/m3] | viscosity, 293.15 K [mPa·s] | viscosity, 298.15 K [mPa·s] | viscosity, 303.15 K [mPa·s] | viscosity, 308.15 K [mPa·s]
x2 = 0 | 803.58 ± 0.13 | 799.59 ± 0.13 | 795.58 ± 0.13 | 791.53 ± 0.13 | 2.195 ± 0.018 | 1.902 ± 0.016 | 1.694 ± 0.015 | 1.511 ± 0.014
x2 = 0.1 | 802.08 ± 0.13 | 798.08 ± 0.13 | 794.05 ± 0.13 | 789.98 ± 0.13 | 2.034 ± 0.017 | 1.81 ± 0.015 | 1.615 ± 0.014 | 1.446 ± 0.013
x2 = 0.2 | 800.86 ± 0.13 | 796.82 ± 0.13 | 792.77 ± 0.13 | 788.8 ± 0.13 | 1.92 ± 0.016 | 1.713 ± 0.015 | 1.533 ± 0.014 | 1.376 ± 0.013
x2 = 0.301 | 799.68 ± 0.12 | 795.65 ± 0.13 | 791.57 ± 0.13 | 787.45 ± 0.13 | 1.825 ± 0.015 | 1.632 ± 0.014 | 1.464 ± 0.013 | 1.317 ± 0.012
x2 = 0.4 | 798.4 ± 0.12 | 794.33 ± 0.13 | 790.22 ± 0.13 | 786.08 ± 0.13 | 1.684 ± 0.015 | 1.511 ± 0.014 | 1.359 ± 0.013 | 1.225 ± 0.012
x2 = 0.5 | 797.31 ± 0.12 | 793.22 ± 0.13 | 789.08 ± 0.13 | 784.92 ± 0.13 | 1.586 ± 0.014 | 1.425 ± 0.013 | 1.284 ± 0.012 | 1.16 ± 0.012
x2 = 0.599 | 795.87 ± 0.12 | 791.75 ± 0.13 | 787.59 ± 0.13 | 783.4 ± 0.13 | 1.505 ± 0.014 | 1.355 ± 0.013 | 1.225 ± 0.012 | 1.11 ± 0.011
x2 = 0.701 | 794.36 ± 0.12 | 790.21 ± 0.13 | 786.02 ± 0.13 | 781.8 ± 0.13 | 1.408 ± 0.013 | 1.272 ± 0.012 | 1.152 ± 0.012 | 1.046 ± 0.011
x2 = 0.8 | 792.88 ± 0.12 | 788.69 ± 0.13 | 784.47 ± 0.13 | 780.21 ± 0.13 | 1.324 ± 0.012 | 1.198 ± 0.012 | 1.088 ± 0.011 | 0.989 ± 0.011
x2 = 0.9 | 791.44 ± 0.12 | 787.22 ± 0.13 | 782.96 ± 0.13 | 778.67 ± 0.13 | 1.242 ± 0.012 | 1.127 ± 0.011 | 1.024 ± 0.011 | 0.933 ± 0.01
